Test results: patent US6461997B1, “Triazole sulfones having herbicidal activity” (Monsanto Technology LLC, priority 1999, dated 2002)

Tests used:
SOLNI (black nightshade) = test: Pre-emergence herbicidal activity, warm season; format: in vivo, Solanum nigrum; conditions: for Pre-emergence activity (GR80) SOLNI: GR80 = lowest tested rate (300, 100, 30, 10 g/ha) with 80% or greater inhibition, approx. 14 days after treating, 30/21° C.
Procedure, shortened: (§1)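 Seeds sown in sterilised fertilised topsoil received surface-applied compound in 50:50 acetone/water, typically at 300, 100, 30 and 10 g/ha, then greenhouse-grown at 30/21° C (warm-season species) or 18/13° C (cool-season species). Percent inhibition versus untreated plants was scored at about 14 days, giving GR80; an asterisk marks activity short of 80% at the top rate.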

POROL (common purslane) = test: Pre-emergence herbicidal activity, warm season; format: in vivo, Portulaca oleracea; conditions: GR80 = lowest tested rate (300, 100, 30, 10 g/ha) with 80% or greater inhibition; approx. 14 days after treating; 30/21° C.
Procedure, shortened: as §1

DATST (jimsonweed) = test: Pre-plant incorporated (PPI) herbicidal activity, warm season; format: in vivo, Datura stramonium; conditions: for PPI activity (GR80) DATST: pre-plant incorporated, GR80 = lowest tested rate with 80% or greater inhibition, approx. 14 days after treating, 30/21° C.
Procedure: (§2) In another set of tests, the pre-plant incorporated (PPI) activity of compounds of this invention was evaluated on the same species as for the pre-emergence tests described above. In the PPI tests the following procedure, designed to simulate PPI application, was used.
(§3) A pre-prepared topsoil mixture (described above) was placed in a pot and compacted to a depth of 1.0 to 1.25 cm from the top of the pot. Seeds of each of several monocotyledonous and dicotyledonous annual plant species were placed on top of the soil. A sufficient quantity of soil to cover the seeds and level fill the pot was weighed into an open container. A known amount of the test compound was dissolved or suspended in an organic solvent and applied by spraying to this cover soil. The cover soil was thoroughly mixed to distribute the test compound throughout the cover soil, and was then applied as a cover layer over the seeds. Untreated soil was used as a cover layer for control pots. After treatment the plants were placed in a greenhouse where they received 0.64 cm of overhead irrigation. All subsequent watering consisted of a light overhead mist and/or subirrigation as needed for germination and growth. Tables 9 and 10 below relate to warm season plant species which were placed after pre-emergence treatment in a greenhouse with a 30/21° C. day/night temperature regime. Tables 11 and 12 below relates to cool season plant species placed after pre-emergence treatment in a greenhouse or growth chamber with an 18/13° C. day/night temperature regime. Only the compounds of Examples 1, 6, 8, 11, 13 and 15-20 were included in PPI tests.
(§4) Approximately 14 days after planting and treating, the plants were observed and herbicidal efficacy recorded as percent inhibition by comparison with untreated plants.

[1] = tested on: VERPE (creeping speedwell); test: Pre-plant incorporated (PPI) herbicidal activity, cool season; format: in vivo, Veronica persicaria; conditions: for PPI activity GR80, VERPE: pre-plant incorporated, lowest tested rate with 80% or greater inhibition, about 14 days; for Percent inhibition VERPE: weed, PPI application
Procedure: as §2, §3, §4

STEME (common chickweed) = test: as above; format: in vivo, Stellaria media; conditions: for PPI activity GR80, STEME: pre-plant incorporated, lowest tested rate with 80% or greater inhibition, about 14 days
Procedure: as §2, §3, §4

[2] = tested on: AGSST (creeping bentgrass); test: as above; format: in vivo, Agrostis stolonifera; conditions: for PPI activity GR80, AGSST: pre-plant incorporated, lowest tested rate with 80% or greater inhibition, about 14 days
Procedure: as §2, §3, §4

AVEFA (wild oat) = test: Post-emergence herbicidal activity, cool season; format: in vivo, Avena fatua; conditions: abraded plants sprayed at 300, 100, 30 and 10 g/ha; about 14 days after treatment
Procedure, shortened: (§5)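 Seedlings grown from seed in topsoil pots were treated 9 to 14 days after planting, foliage first abraded with garnet particles, then sprayed with test compound in 50:50 acetone/water at 300, 100, 30 and 10 g/ha (3,100 l/ha). Kept at 18/13° C. day/night, percent inhibition versus abraded unsprayed controls was scored about 14 days later and GR80 assigned.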

[3] = tested on: AEGCY (jointed goatgrass); test: Post-emergence herbicidal activity, cool season; format: in vivo, Aegilops cylindrica; conditions: abraded plants sprayed at 300, 100, 30 and 10 g/ha; about 14 days after treatment
Procedure, shortened: as §5

[4] = tested on: AGRRE (quackgrass (seedling)); test: Post-emergence herbicidal activity, cool season; format: in vivo, Elymus repens; conditions: abraded plants sprayed at 300, 100, 30 and 10 g/ha; about 14 days after treatment
Procedure, shortened: as §5

[5] = weed, PPI application, 100 g/ha
[6] = weed, PPI application, 300 g/ha
[7] = weed, PPI application, 900 g/ha

## CCN(CC)C(=O)n1cnc(S(=O)(=O)C(F)(F)Br)n1 [Example 1, 3-(bromodifluoromethylsulfonyl)-1-(N,N-diethylcarbamoyl)-1,2,4-triazole]
SOLNI (black nightshade)
  Pre-emergence activity (GR80) SOLNI: 100 g/ha
SOLNI (black nightshade); Solanum nigrum, pre-emergence application, 10 g/ha, read-out: Percent inhibition, weed SOLNI
  inhibition at 10 g/ha: 0%
SOLNI (black nightshade); Solanum nigrum, pre-emergence application, 30 g/ha, read-out: Percent inhibition, weed SOLNI
  inhibition at 30 g/ha: 0%
SOLNI (black nightshade); Solanum nigrum, pre-emergence application, 100 g/ha, read-out: Percent inhibition, weed SOLNI
  inhibition at 100 g/ha: 0%
SOLNI (black nightshade); Solanum nigrum, pre-emergence application, 300 g/ha, read-out: Percent inhibition, weed SOLNI
  inhibition at 300 g/ha: 0%
SOLNI (black nightshade); Solanum nigrum, pre-emergence application, 900 g/ha, read-out: Percent inhibition, weed SOLNI
  inhibition at 900 g/ha: 20%
POROL (common purslane)
  Pre-emergence activity (GR80) POROL: 100 g/ha
DATST (jimsonweed); Datura stramonium, PPI application, 10 g/ha, read-out: Percent inhibition DATST
  inhibition at 10 g/ha: 0%
DATST (jimsonweed); Datura stramonium, PPI application, 30 g/ha, read-out: Percent inhibition DATST
  inhibition at 30 g/ha: 0%
DATST (jimsonweed); Datura stramonium, PPI application, 100 g/ha, read-out: Percent inhibition DATST
  inhibition at 100 g/ha: 0%
DATST (jimsonweed); Datura stramonium, PPI application, 300 g/ha, read-out: Percent inhibition DATST
  inhibition at 300 g/ha: 40%
DATST (jimsonweed); Datura stramonium, PPI application, 900 g/ha, read-out: Percent inhibition DATST
  inhibition at 900 g/ha: 95%
DATST (jimsonweed)
  PPI activity (GR80) DATST: 30 g/ha
[1]
  PPI activity GR80, VERPE: 30 g/ha
STEME (common chickweed); Stellaria media, weed, PPI application, 30 g/ha, read-out: Percent inhibition STEME
  inhibition at 30 g/ha: 60%
STEME (common chickweed); Stellaria media, weed, PPI application, 100 g/ha, read-out: Percent inhibition STEME
  inhibition at 100 g/ha: 100%
STEME (common chickweed); Stellaria media, weed, PPI application, 300 g/ha, read-out: Percent inhibition STEME
  inhibition at 300 g/ha: 99%
STEME (common chickweed); Stellaria media, weed, PPI application, 900 g/ha, read-out: Percent inhibition STEME
  inhibition at 900 g/ha: 95%
STEME (common chickweed)
  PPI activity GR80, STEME: 100 g/ha
[2]; Agrostis stolonifera, weed, PPI application, 30 g/ha, read-out: Percent inhibition AGSST
  inhibition at 30 g/ha: 100%
[2]; Agrostis stolonifera, weed, PPI application, 100 g/ha, read-out: Percent inhibition AGSST
  inhibition at 100 g/ha: 100%
[2]; Agrostis stolonifera, weed, PPI application, 300 g/ha, read-out: Percent inhibition AGSST
  inhibition at 300 g/ha: 100%
[2]; Agrostis stolonifera, weed, PPI application, 900 g/ha, read-out: Percent inhibition AGSST
  inhibition at 900 g/ha: 100%
[2]
  PPI activity GR80, AGSST: 30 g/ha
AVEFA (wild oat)
  Post-emergence activity GR80, AVEFA: [empty]
[3]
  Post-emergence activity GR80, AEGCY: [empty]
[4]
  Post-emergence activity GR80, AGRRE: [empty]

## CCN(CC)C(=O)n1cnc(S(=O)(=O)C(F)(F)SC)n1 [Example 9]
SOLNI (black nightshade)
  Pre-emergence activity (GR80) SOLNI: 100 g/ha
POROL (common purslane)
  Pre-emergence activity (GR80) POROL: 300 g/ha
DATST (jimsonweed); PPI application, 30 g/ha
  Percent inhibition DATST: 0%
DATST (jimsonweed); PPI application, 100 g/ha
  Percent inhibition DATST: 0%
DATST (jimsonweed); PPI application, 300 g/ha
  Percent inhibition DATST: 80%
DATST (jimsonweed); PPI application, 900 g/ha
  Percent inhibition DATST: 100%
STEME (common chickweed); weed, PPI application, 30 g/ha
  Percent inhibition STEME: 70%
STEME (common chickweed); [5]
  Percent inhibition STEME: 95%
STEME (common chickweed); [6]
  Percent inhibition STEME: 100%
STEME (common chickweed); [7]
  Percent inhibition STEME: 100%
[2]; weed, PPI application, 30 g/ha
  Percent inhibition AGSST: 99%
[2]; [5]
  Percent inhibition AGSST: 100%
[2]; [6]
  Percent inhibition AGSST: 100%
[2]; [7]
  Percent inhibition AGSST: 100%
AVEFA (wild oat)
  Post-emergence activity GR80, AVEFA: [empty]
[3]
  Post-emergence activity GR80, AEGCY: [empty]
[4]
  Post-emergence activity GR80, AGRRE: [empty]

## CCN(CC)C(=O)n1cnc(S(=O)(=O)C(F)(F)SCC(=O)OC)n1 [Example 11]
SOLNI (black nightshade)
  Pre-emergence activity (GR80) SOLNI: 300 g/ha
DATST (jimsonweed); PPI application, 10 g/ha
  Percent inhibition DATST: 0%
DATST (jimsonweed); PPI application, 30 g/ha
  Percent inhibition DATST: 0%
DATST (jimsonweed); PPI application, 100 g/ha
  Percent inhibition DATST: 20%
DATST (jimsonweed); PPI application, 300 g/ha
  Percent inhibition DATST: 20%
DATST (jimsonweed); PPI application, 900 g/ha
  Percent inhibition DATST: 80%
DATST (jimsonweed)
  PPI activity (GR80) DATST: 100 g/ha
[1]
  PPI activity GR80, VERPE: [empty]
[1]; 10 g/ha
  Percent inhibition VERPE: 90%
[1]; 30 g/ha
  Percent inhibition VERPE: 90%
[1]; 100 g/ha
  Percent inhibition VERPE: 100%
[1]; 300 g/ha
  Percent inhibition VERPE: 100%
[1]; 900 g/ha
  Percent inhibition VERPE: 100%
STEME (common chickweed)
  PPI activity GR80, STEME: 300 g/ha
STEME (common chickweed); weed, PPI application, 10 g/ha
  Percent inhibition STEME: 0%
STEME (common chickweed); weed, PPI application, 30 g/ha
  Percent inhibition STEME: 0%
STEME (common chickweed); [5]
  Percent inhibition STEME: 0%
STEME (common chickweed); [6]
  Percent inhibition STEME: 0%
STEME (common chickweed); [7]
  Percent inhibition STEME: 30%
[2]
  PPI activity GR80, AGSST: 300 g/ha
[2]; weed, PPI application, 10 g/ha
  Percent inhibition AGSST: 60%
[2]; weed, PPI application, 30 g/ha
  Percent inhibition AGSST: 50%
[2]; [5]
  Percent inhibition AGSST: 60%
[2]; [6]
  Percent inhibition AGSST: 90%
[2]; [7]
  Percent inhibition AGSST: 100%
AVEFA (wild oat)
  Post-emergence activity GR80, AVEFA: [empty]
[3]
  Post-emergence activity GR80, AEGCY: [empty]
[4]
  Post-emergence activity GR80, AGRRE: [empty]

## CCN(CC)C(=O)n1cnc(S(=O)(=O)C(F)(F)SCCOC)n1 [Example 13]
SOLNI (black nightshade)
  Pre-emergence activity (GR80) SOLNI: 300 g/ha
DATST (jimsonweed); PPI application, 10 g/ha
  Percent inhibition DATST: 0%
DATST (jimsonweed); PPI application, 30 g/ha
  Percent inhibition DATST: 30%
DATST (jimsonweed); PPI application, 100 g/ha
  Percent inhibition DATST: 50%
DATST (jimsonweed); PPI application, 300 g/ha
  Percent inhibition DATST: 90%
DATST (jimsonweed); PPI application, 900 g/ha
  Percent inhibition DATST: 100%
DATST (jimsonweed)
  PPI activity (GR80) DATST: 300 g/ha
[1]
  PPI activity GR80, VERPE: 100 g/ha
[1]; 10 g/ha
  Percent inhibition VERPE: 75%
[1]; 30 g/ha
  Percent inhibition VERPE: 100%
[1]; 100 g/ha
  Percent inhibition VERPE: 100%
[1]; 300 g/ha
  Percent inhibition VERPE: 100%
[1]; 900 g/ha
  Percent inhibition VERPE: 100%
STEME (common chickweed)
  PPI activity GR80, STEME: * (activity observed, at least at highest rate, but <80% inhibition)
STEME (common chickweed); weed, PPI application, 10 g/ha
  Percent inhibition STEME: 0%
STEME (common chickweed); weed, PPI application, 30 g/ha
  Percent inhibition STEME: 0%
STEME (common chickweed); [5]
  Percent inhibition STEME: 20%
STEME (common chickweed); [6]
  Percent inhibition STEME: 100%
STEME (common chickweed); [7]
  Percent inhibition STEME: 99%
[2]
  PPI activity GR80, AGSST: 30 g/ha
[2]; weed, PPI application, 10 g/ha
  Percent inhibition AGSST: 60%
[2]; weed, PPI application, 30 g/ha
  Percent inhibition AGSST: 95%
[2]; [5]
  Percent inhibition AGSST: 100%
[2]; [6]
  Percent inhibition AGSST: 100%
[2]; [7]
  Percent inhibition AGSST: 100%
AVEFA (wild oat)
  Post-emergence activity GR80, AVEFA: [empty]
[3]
  Post-emergence activity GR80, AEGCY: [empty]
[4]
  Post-emergence activity GR80, AGRRE: [empty]

## CCN(CC)C(=O)n1cnc(S(=O)(=O)C(F)(F)C(F)(F)SC)n1 [Example 14]
SOLNI (black nightshade)
  Pre-emergence activity (GR80) SOLNI: 300 g/ha
POROL (common purslane)
  Pre-emergence activity (GR80) POROL: 300 g/ha
AVEFA (wild oat)
  Post-emergence activity GR80, AVEFA: [empty]
[3]
  Post-emergence activity GR80, AEGCY: [empty]
[4]
  Post-emergence activity GR80, AGRRE: [empty]
